# Test results published in patent EP2266963A1, “Fluorogenic peptidase substrate” (ECOLE NORMALE SUPERIEURE DE LYON, priority 2009, dated 2010).
# Assays:
# [1] = Spontaneous degradation of substrate in LB medium without enzyme or cells (background fluorescence signal); format: physicochemical; conditions: 37°C, emission 495 nm
# Protocol: (§1) Substrate 2 concentration : 6 µM; enzyme : leucyle aminopeptidase (0.01 U); 37°C; LB medium; emission wavelength : 495 nm; Spectramax Gemini from Molecular Device.
# (§2) Substrate 2 concentration : 6 µM; bacterial cell line : DH5a (Invitrogen); 37°C; LB medium; emission wavelength : 495 nm. Substrate 2 is added during the exponential growth phase at an absorbance of 0.6 to 0.8.
# leucyl aminopeptidase [2] = test: Time-dependent fluorescence signal evolution with pure enzyme in LB medium, with or without inhibitor; format: biochemical; conditions: 37°C
# Protocol: Scheme 3 presents the reaction cascade initiated by cleavage of the substrate 1 or 2 by a target peptidase. [drawing 5] • Figure 1 (ordinate in arbitrary fluorescence units a.u.) represents the emission spectra (λexc = 365 nm) of substrate 2 (20 µM) before (curve a) and after incubation with leucyl aminopeptidase for 1 h (curve b) at 25 °C in Tris-HCl buffer. The experiment was monitored with a standard multi-well plate fluorescence spectrophotometer (Spectramax Gemini by Molecular Devices). • Figure 2 presents a fluorogenic test (λexc = 365 nm, λem = 495 nm) at 25 °C for the activity of leucyl aminopeptidase in Tris-HCl (25 mM, pH 7.4) using 38 µM of substrate 1 or 2 , and 0.02 U mL^-1 of leucyl aminopeptidase. The following curves for time-dependent fluorescence signal evolution were obtained : (a) substrate 2 with enzyme, (b) substrate 1 with enzyme (c) substrate 2 without enzyme but with added bovine serum albumin (0.1 mg mL^-1), (d) substrate 1 without enzyme but with added bovine serum albumin (0.1 mg mL^-1). • Figure 3 presents the time-dependent signal evolution obtained with pure enzyme in complex LB (Lysogeny broth) medium (from Fisher, "LB Broth Lennox", ref 240230) rather than in pure buffer (TRIS-HCl).
# as §1
# Figure 4 presents the time-dependent signal evolution obtained with pure enzyme in LB medium in the presence or absence of a standard aminopeptidase inhibitor (bestatine).
# Substrate 2 concentration : 6 µM; enzyme : leucyle aminopeptidase (0.01 U); inhibitor concentration : 10 nM; 37°C; LB medium; emission wavelength : 495 nm ;
# leucyl aminopeptidase [3] = test: Fluorogenic test for leucyl aminopeptidase activity in Tris-HCl buffer; format: biochemical; conditions: Figure 2 curve a; substrate with enzyme; TRIS-HCl buffer 25 mM pH 7.4; 38 µM substrate; 0.02 U mL^-1 enzyme; 25 °C; λexc 365 nm, λem 495 nm
# Protocol: Column chromatography was performed using silicagel Si 60 (40-63 µm). ^1H and ^13C NMR spectra were recorded at 200.13 MHz, 50.13 MHz, respectively. Chemical shifts (δ) are reported in ppm (s = singlet, d= doublet, t = triplet, m = multiplet, br = broad) and quoted with reference to tetramethyl silane or from solvent signals. NMR coupling constants (J) are reported in Hertz. Fluorescence assays were carried out in black roundbottom polypropylene 96-well-plates (NUNCLONE, Nunc Inc.) and recorded on a microplate spectrofluorimeter (Gemini XPS by Molecular Devices).
# Scheme 3 presents the reaction cascade initiated by cleavage of the substrate 1 or 2 by a target peptidase. [drawing 5] • Figure 1 (ordinate in arbitrary fluorescence units a.u.) represents the emission spectra (λexc = 365 nm) of substrate 2 (20 µM) before (curve a) and after incubation with leucyl aminopeptidase for 1 h (curve b) at 25 °C in Tris-HCl buffer. The experiment was monitored with a standard multi-well plate fluorescence spectrophotometer (Spectramax Gemini by Molecular Devices). • Figure 2 presents a fluorogenic test (λexc = 365 nm, λem = 495 nm) at 25 °C for the activity of leucyl aminopeptidase in Tris-HCl (25 mM, pH 7.4) using 38 µM of substrate 1 or 2 , and 0.02 U mL^-1 of leucyl aminopeptidase. […]
# [4] = tested on: bacterial cell line : DH5a; test: Incubation of substrate with bacterial cells at wild-type aminopeptidase level in LB medium; format: cell-based, E-Coli; conditions: Figure 5, 6 µM substrate added in exponential growth phase (absorbance 0.6 to 0.8), 37°C, emission 495 nm
# Protocol: as §2
"time at which signal plateaus in the absence of enzyme ([1]; Figure 3, LB+substrate 2, 6 µM substrate)","time at which signal reaches a plateau through slow degradation of the substrate ([1]; Figure 5, LB + substrate 2, no cells, 6 µM substrate) [h]","time at which fluorescence signal reaches a plateau (leucyl aminopeptidase [2]; Figure 3, LB+E+substrate 2, 6 µM substrate, enzyme 0.01 U, emission 495 nm)","time at which signal reaches the same level as the uninhibited reaction (leucyl aminopeptidase [2]; Figure 4, LB+E+I+substrate 2, inhibitor bestatine 10 nM, 6 µM substrate, enzyme 0.01 U) [h]","time at which fluorescence signal reaches a plateau (uninhibited reaction) (leucyl aminopeptidase [2]; Figure 4, LB+E+substrate 2, no inhibitor, 6 µM substrate, enzyme 0.01 U, emission 495 nm)",time at which fluorescence signal reaches a plateau (leucyl aminopeptidase [3]) [h],SMILES,time at which signal reaches a plateau on incubation with cells [4] [h],"effect of inhibitor on signal evolution (leucyl aminopeptidase [2]; Figure 4, inhibitor 10 nM, 6 µM substrate 2, enzyme 0.01 U)"
about 12 hours,10,approximately 1 hour,2.5,about 1.5 h,0.5,CC(C)C[C@H](N)C(=O)NCCC(C)(C)C(=O)OCOc1ccccc1-c1nc2ccccc2c(=O)[nH]1 [substrate 2],2.5,
,,,,,,"CC(C)C[C@H](NC(=O)[C@@H](O)[C@H](N)Cc1ccccc1)C(=O)O [inhibitor (I), bestatine, reference compound]",,a delay in signal evolution can be detected
